According to patent US20240325397A1, “USE OF COMBINATION THERAPY FOR TREATING CANCER” (Recurium IP Holdings, LLC, priority 2021, published 2024):

Columns and labels:
[1] = system: HER2+ JIMT-1 breast cancer cell line; test: HER2+ JIMT-1 breast cancer xenograft, Study 1-Part 2 (high initial tumor burden); assay type: in vivo, NOD/SCID mice; conditions: Day 14 of second part; tumors approximately 1000 mm^3 at start; Compound (A) 60 mg/kg p.o. qd; trastuzumab 10 mg/kg i.p. qw; vs. vehicle
[2] = system: palbociclib-resistant breast cancer cells (CTG-1207); test: Palbociclib-resistant breast cancer PDX model (CTG-1207); assay type: in vivo, mice; conditions: Compound (A) 80 mg/kg, palbociclib 50 mg/kg, alone or in combination; FIG. 10A
Protocol: The antitumor activity of Compound (A) in combination with palbociclib was further evaluated in a palbociclib-resistant breast cancer PDX model (CTG-1207). Mice were inoculated subcutaneously with palbociclib-resistant breast cancer cells in DMEM Matrigel mixture (1:1 ratio) without serum for tumor development. Once tumor size reached approximately 200 mm^3, mice were randomized into 4 groups (8 mice per group) and treated with vehicle control, 80 mg/kg Compound (A) alone, 50 mg/kg Palbociclib alone, or Compound (A) at 80 mg/kg in combination with 50 mg/kg palbociclib. Study endpoints included daily body weight, clinical observations, tumor volume.

[3] = system: HER2+ JIMT-1 breast cancer cell line; test: HER2+ JIMT-1 breast cancer xenograft, Study 1-Part 1; assay type: in vivo; conditions: Compound (A) 60 mg/kg p.o. qd × 28, trastuzumab 10 mg/kg i.p. qw × 4
Protocol: The HER2+ JIMT-1 breast cancer cell line was used for tumor xenograft inoculations and subsequent treatment. […] Treatment was started when mean tumor size reached 204 mm^3. Mice were then randomized into 5 groups and treatments were administered to the tumor-bearing mice accordingly to the study design in Table 2.

HCC1428 tumor cells = test: Activity in mice bearing human HCC1428 breast cancer xenograft tumors; assay type: in vivo
Protocol: The activity of Compound (A) as evaluated in mice bearing human HCC1428 breast cancer xenograft tumors. Each mouse was inoculated subcutaneously at the right flank with HCC1428 tumor cells (1×10^7) in 0.2 mL mixture of PBS and Matrigel (PBS: Matrigel=1:1) for tumor development, which has been subcutaneously implanted with 17beta-estradiol tablets (0.18 mg, 90-day release) two days before cell implantation. Treatments were started on day 21 after tumor inoculation when the average tumor size reached approximately 185 mm^3. The animals were assigned into two groups using an excel-based randomization software performing stratified randomization based upon their tumor volumes. Each group consisted of 10 tumor bearing mice. The vehicle control or Compound (A) at 80 mg/kg was administrated once daily to the mice by oral gavage for 28 days. In FIG. 5, the top line is vehicle, and the bottom line is Compound (A).

[4] = system: tamoxifen resistant ZR-75-1 tumor cells (ZR-75-1R); test: Single agent efficacy in ZR-75-1 tamoxifen resistant tumor model; assay type: in vivo, mouse; conditions: post 28 days treatment; Tamoxifen 100 mg/kg 5 days per week for three weeks; Compound (A) 80 mg/kg orally daily for 28 days; FIG. 4
Protocol: Compound (A)'s efficacy as a single agent was evaluated in ZR-75-1 tamoxifen resistant tumor model. The tamoxifen resistant ZR-75-1 tumor cells (ZR-75-1R) were maintained in vitro as monolayer culture in RPMI1640 Medium supplemented with 10% fetal bovine serum and 10 μM tamoxifen at 37° C. in an atmosphere of 5% CO2 incubator. Each mouse was then inoculated subcutaneously on the right flank with 1×10^7 ZR-75-1R tumor cells in 100 μL RPMI-1640 Matrigel mixture (1:1 ratio) without serum for the tumor development. In addition, estradiol benzoate injection was delivered by s.c. (40 ug/20 uL, twice weekly). Mice were then randomized into 3 groups when mean tumor size reached 191 mm^3 and treatment was started. Tamoxifen was dosed at 100 mg/kg 5 days per week for three weeks, Compound (A) was orally dosed at 80 mg/kg daily for 28 days. Study endpoints included daily body weight, clinical observations, tumor volume. In FIG. 4, the top line is Tamoxifen (100 mg/kg), the middle line is vehicle, and the bottom line is Compound (A) (80 mg/kg). […] No other gross clinical abnormalities were observed during the treatment period and animal body loss was manageable by giving animals dosing holiday.

MCF-7 tumor cells [5] = test: Antitumor activity of Compound (A) as single agent in MCF-7 xenograft model; assay type: in vivo, mouse
Protocol: The antitumor activity of Compound (A) was assessed using the MCF-7 xenograft model. Each mouse was inoculated subcutaneously on the 2nd right mammary fat pad with 1.5×10^7 MCF-7 tumor cells in 200 μL DMEM Matrigel mixture (1:1 ratio) without serum for the tumor development. In addition, estradiol benzoate injection was delivered by s.c. (40 ug/20 uL, twice weekly). When mean tumor size reached 204 mm^3, animals were randomized into 2 groups (10 animals/group) and the treatments were initiated. Compound (A) or vehicle control was administered once daily by oral gavage and continued for 28-days. Study endpoints included daily body weight, clinical observations, tumor volume. […] In FIG. 3, the top line is vehicle, and the bottom line is Compound (A) (80 mg/kg qd×22 p.o).

MCF-7 tumor cells [6] = test: Compound (A) in combination with palbociclib in MCF-7 xenograft model; assay type: in vivo, mouse; conditions: 28 days; for tumor regression: Compound (A) 80/60 mg/kg, palbociclib 50 mg/kg, alone or in combination; for TGI: monotherapy: Compound (A) 80/60 mg/kg alone or palbociclib 50 mg/kg alone, FIG. 6
Protocol: The antitumor activity of Compound (A) in combination with a CDK4/6 inhibitor, palbociclib was evaluated in the MCF-7 xenograft model. Each mouse was inoculated subcutaneously on the right flank with the MCF-7 tumor cells (1.5×10^7) in 200 μL DMEM Matrigel mixture (1:1 ratio) without serum for the tumor development. In addition, estradiol benzoate injection was delivered by s.c. (40 ug/20 uL, twice weekly). When mean tumor size reached 202 mm^3, mice were randomized into 5 groups (10 animals/group) and treatment was started. Animals were dosed with vehicle, 80/60 mg/kg Compound (A) alone, 50 mg/kg palbociclib alone, 80 mg/kg Compound (A) in combination with 50 mg/kg Palbociclib by sequential dosing schedule (alternated per two weeks) or Compound (A) at 80/60 mg/kg in combination with palbociclib at 50 mg/kg. Treatment periods were 28 days. In FIG. 6, the top line (indicated with circles) is vehicle. […] Furthermore, Compound (A) in combination with palbociclib induced around 55% tumor regression.

MCF-7 cells = test: Compound (A) in combination with palbociclib at a lower dose in MCF-7 xenograft model; assay type: in vivo, mouse; conditions: Compound (A) 60 mg/kg, palbociclib 25 mg/kg, alone or in combination; FIG. 7
Protocol: The antitumor activity of Compound (A) in combination with a CDK4/6 inhibitor, palbociclib at a lower dose was evaluated in the MCF-7 xenograft model. Each mouse was inoculated subcutaneously on the 2nd right mammary fat pad with 1.5×10^7 MCF-7 cells in 200 μL DMEM Matrigel mixture (1:1 ratio) without serum for the tumor development. In addition, estradiol benzoate injection was delivered by s.c. (40 ug/20 uL, twice weekly). The treatments were started when mean tumor size reached 203 mm^3. Mice were randomized into 4 groups (8 mice per group) and treated with vehicle control, 60 mg/kg Compound (A) alone, 25 mg/kg Palbociclib alone, Compound (A) at 60 mg/kg in combination with 25 mg/kg palbociclib. Study endpoints included daily body weight, clinical observations, tumor volume.

[7] = Compound (A) 80 mg/kg once daily p.o. 28 days
[8] = Compound (A) 80 mg/kg once daily p.o.

| SMILES | TGI (%) on Day 14 [1] | tumor growth / TGI (in words) [2] | tumor growth inhibition (TGI) on Day 29 compared to respective vehicle controls ([3]; combination vs. either vehicle control) | TGI (%) vs. Vehicle A ([3]; Day 29, Vehicle A p.o.) | tumor growth inhibition (TGI) (HCC1428 tumor cells; Compound (A) 80 mg/kg once daily by oral gavage for 28 days, FIG. 5) | body weight loss (HCC1428 tumor cells; [7]) | clinical observations (HCC1428 tumor cells; [7]) | TGI (tumor growth inhibition) [4] | inhibition of tumor growth (MCF-7 tumor cells [5]; Compound (A) 80 mg/kg once daily by oral gavage, single agent, FIG. 3) | clinical observations (MCF-7 tumor cells [5]; [8]) | mean body weights (MCF-7 tumor cells [5]; [8]) | tumor regression (MCF-7 tumor cells [6]) | TGI (MCF-7 tumor cells [6]) | TGI (MCF-7 cells) |
| --- | --- | --- | --- | --- | --- | --- | --- | --- | --- | --- | --- | --- | --- | --- |
| C=CCn1c(=O)c2cnc(Nc3ccc(N4CCN(C)CC4)cc3)nc2n1-c1ccc2c(n1)[C@@](O)(CC)CC2 [Compound (A)] | 68.2% | reduced tumor growth | 68% | 67.7% | 96.2% | no significant body weight loss | no adverse clinical observations | 69.9% | 132.6% | no adverse clinical observations | no significant impact on mean body weights | 32.7% | around 116% | 48.6% |
| CC/C(=C(\c1ccccc1)c1ccc(OCCN(C)C)cc1)c1ccccc1 [Tamoxifen, reference compound] |  |  |  |  |  |  |  | −47.9% |  |  |  |  |  |  |
| CC(=O)c1c(C)c2cnc(Nc3ccc(N4CCNCC4)cn3)nc2n(C2CCCC2)c1=O [palbociclib, reference compound] |  |  |  |  |  |  |  |  |  |  |  | 39.1% | ~119% | 14.2% |
